Measured values published in ChEMBL document CHEMBL1155301, “Optimization of the aminopyridopyrazinones class of PDE5 inhibitors: discovery of 3-[(trans-4-hydroxycyclohexyl)amino]-7-(6-methoxypyridin-3-yl)-1-(2-propoxyethyl)pyrido[3,4-b]pyrazin-2(1H)-one” (Bioorg Med Chem Lett, 2009).
Where “and” joins values, the source holds several entries; their conditions need not be identical. Identical values can stand only once. Calls of active or inactive are those of the source. The calls are words filed in the database; no cut-off is given here.

Experiments:
Rattus norvegicus [1] = assay: Antihypertensive activity against telemeterized rat at 10 mg/kg, po; assay type: functional, organism-based; design: dose 10 mg/kg
[2] = Clearance in rat at 2 mg/kg, po and 2 mg/kg, iv; assay type: ADME, organism-based; conditions: in vivo
[3] = biological target: cGMP-inhibited 3',5'-cyclic phosphodiesterase 3A (Homo sapiens, UniProt Q14432); assay: Inhibition of PDE3A
Sequence of cGMP-inhibited 3',5'-cyclic phosphodiesterase 3A (Q14432 whole entry): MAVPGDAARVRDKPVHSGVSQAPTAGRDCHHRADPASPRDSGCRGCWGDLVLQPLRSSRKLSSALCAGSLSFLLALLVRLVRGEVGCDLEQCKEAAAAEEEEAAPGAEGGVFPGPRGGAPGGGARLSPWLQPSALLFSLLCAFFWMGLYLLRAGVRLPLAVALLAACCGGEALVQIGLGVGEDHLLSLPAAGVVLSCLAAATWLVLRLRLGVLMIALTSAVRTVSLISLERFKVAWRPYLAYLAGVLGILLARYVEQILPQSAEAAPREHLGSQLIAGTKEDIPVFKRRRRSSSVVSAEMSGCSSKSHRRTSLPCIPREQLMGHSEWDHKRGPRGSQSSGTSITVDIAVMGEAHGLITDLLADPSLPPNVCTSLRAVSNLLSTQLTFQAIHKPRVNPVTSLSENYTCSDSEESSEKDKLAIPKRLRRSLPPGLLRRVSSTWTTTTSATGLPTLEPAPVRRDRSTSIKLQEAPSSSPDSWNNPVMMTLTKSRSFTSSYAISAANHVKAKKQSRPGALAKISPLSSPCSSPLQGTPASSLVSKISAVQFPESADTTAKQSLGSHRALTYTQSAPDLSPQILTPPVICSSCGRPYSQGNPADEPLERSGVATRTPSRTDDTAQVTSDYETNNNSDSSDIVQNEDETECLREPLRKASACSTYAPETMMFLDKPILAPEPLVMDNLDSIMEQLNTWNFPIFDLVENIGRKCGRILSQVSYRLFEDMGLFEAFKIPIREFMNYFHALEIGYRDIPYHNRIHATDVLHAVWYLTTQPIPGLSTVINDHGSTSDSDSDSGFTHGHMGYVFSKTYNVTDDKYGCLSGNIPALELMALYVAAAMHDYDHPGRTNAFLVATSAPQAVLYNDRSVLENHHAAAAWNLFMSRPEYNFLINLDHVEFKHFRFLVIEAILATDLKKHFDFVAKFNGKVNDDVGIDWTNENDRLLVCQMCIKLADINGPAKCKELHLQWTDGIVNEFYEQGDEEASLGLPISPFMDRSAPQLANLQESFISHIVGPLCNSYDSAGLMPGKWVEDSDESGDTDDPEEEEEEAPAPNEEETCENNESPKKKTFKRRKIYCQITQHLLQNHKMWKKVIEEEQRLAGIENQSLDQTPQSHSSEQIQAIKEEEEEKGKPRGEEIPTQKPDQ

[4] = Permeability from apical to basolateral side in human Caco-2 cells; assay type: ADME, cell-based; conditions: read-out: permeability
[5] = biological target: High affinity cAMP-specific and IBMX-insensitive 3',5'-cyclic phosphodiesterase 8B (Homo sapiens, UniProt O95263); assay: Inhibition of PDE8B
Sequence of High affinity cAMP-specific and IBMX-insensitive 3',5'-cyclic phosphodiesterase 8B (O95263 whole entry): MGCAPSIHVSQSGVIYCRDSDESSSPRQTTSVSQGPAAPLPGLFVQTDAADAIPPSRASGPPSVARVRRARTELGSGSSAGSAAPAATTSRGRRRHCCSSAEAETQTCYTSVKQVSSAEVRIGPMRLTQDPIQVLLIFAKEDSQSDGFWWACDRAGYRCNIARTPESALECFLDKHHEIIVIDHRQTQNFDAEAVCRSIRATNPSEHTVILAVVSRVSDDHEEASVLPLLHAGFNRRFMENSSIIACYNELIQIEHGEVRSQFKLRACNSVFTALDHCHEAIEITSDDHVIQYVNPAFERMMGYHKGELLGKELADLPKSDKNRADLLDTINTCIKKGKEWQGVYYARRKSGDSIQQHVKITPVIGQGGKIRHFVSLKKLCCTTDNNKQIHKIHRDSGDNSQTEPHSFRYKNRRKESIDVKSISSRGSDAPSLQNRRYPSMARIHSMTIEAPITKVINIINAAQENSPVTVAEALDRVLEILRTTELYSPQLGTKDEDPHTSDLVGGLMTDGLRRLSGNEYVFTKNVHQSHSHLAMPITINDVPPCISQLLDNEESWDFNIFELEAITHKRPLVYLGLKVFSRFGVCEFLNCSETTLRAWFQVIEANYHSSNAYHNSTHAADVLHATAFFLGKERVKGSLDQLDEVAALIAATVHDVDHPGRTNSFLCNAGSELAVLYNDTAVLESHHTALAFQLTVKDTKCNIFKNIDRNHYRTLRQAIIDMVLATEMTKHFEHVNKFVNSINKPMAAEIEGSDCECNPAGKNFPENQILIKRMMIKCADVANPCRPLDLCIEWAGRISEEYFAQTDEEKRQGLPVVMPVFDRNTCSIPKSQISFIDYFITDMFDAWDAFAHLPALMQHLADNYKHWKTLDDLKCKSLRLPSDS

[6] = Oral bioavailability in rat at 2 mg/kg; assay type: ADME, organism-based; conditions: in vivo
[7] = biological target: High affinity cAMP-specific and IBMX-insensitive 3',5'-cyclic phosphodiesterase 8A (Homo sapiens, UniProt O60658); assay: Inhibition of PDE8A
[8] = biological target: 3',5'-cyclic-AMP phosphodiesterase 7B (Homo sapiens, UniProt Q9NP56); assay: Inhibition of PDE7B
Rattus norvegicus [9] = organism: Rattus norvegicus; assay: Unbound volume of distribution in rat; assay type: ADME, organism-based; conditions: in vivo
[10] = biological target: 3',5'-cyclic-AMP phosphodiesterase 4D (Homo sapiens, UniProt Q08499)
[11] = biological target: cGMP-specific 3',5'-cyclic phosphodiesterase (Homo sapiens, UniProt O76074); assay: Inhibition of PDE5
[12] = biological target: High affinity 3',5'-cyclic-AMP phosphodiesterase 7A (Homo sapiens, UniProt Q13946); assay: Inhibition of PDE7A
Sequence of High affinity 3',5'-cyclic-AMP phosphodiesterase 7A (Q13946 whole entry): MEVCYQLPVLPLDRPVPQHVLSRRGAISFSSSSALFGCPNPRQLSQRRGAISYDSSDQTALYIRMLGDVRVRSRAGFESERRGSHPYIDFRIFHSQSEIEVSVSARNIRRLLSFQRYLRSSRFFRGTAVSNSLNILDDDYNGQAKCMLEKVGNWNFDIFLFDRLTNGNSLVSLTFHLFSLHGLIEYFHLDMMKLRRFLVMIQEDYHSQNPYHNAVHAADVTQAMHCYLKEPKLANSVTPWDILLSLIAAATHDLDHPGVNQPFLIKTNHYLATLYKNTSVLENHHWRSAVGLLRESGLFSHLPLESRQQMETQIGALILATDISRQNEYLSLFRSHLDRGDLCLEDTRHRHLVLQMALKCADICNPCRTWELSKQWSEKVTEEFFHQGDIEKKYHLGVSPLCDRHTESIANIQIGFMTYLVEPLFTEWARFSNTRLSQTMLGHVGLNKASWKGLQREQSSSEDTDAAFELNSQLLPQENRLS

[13] = biological target: cGMP-inhibited 3',5'-cyclic phosphodiesterase 3B (Homo sapiens, UniProt Q13370); assay: Inhibition of PDE3B
Sequence of cGMP-inhibited 3',5'-cyclic phosphodiesterase 3B (Q13370 whole entry): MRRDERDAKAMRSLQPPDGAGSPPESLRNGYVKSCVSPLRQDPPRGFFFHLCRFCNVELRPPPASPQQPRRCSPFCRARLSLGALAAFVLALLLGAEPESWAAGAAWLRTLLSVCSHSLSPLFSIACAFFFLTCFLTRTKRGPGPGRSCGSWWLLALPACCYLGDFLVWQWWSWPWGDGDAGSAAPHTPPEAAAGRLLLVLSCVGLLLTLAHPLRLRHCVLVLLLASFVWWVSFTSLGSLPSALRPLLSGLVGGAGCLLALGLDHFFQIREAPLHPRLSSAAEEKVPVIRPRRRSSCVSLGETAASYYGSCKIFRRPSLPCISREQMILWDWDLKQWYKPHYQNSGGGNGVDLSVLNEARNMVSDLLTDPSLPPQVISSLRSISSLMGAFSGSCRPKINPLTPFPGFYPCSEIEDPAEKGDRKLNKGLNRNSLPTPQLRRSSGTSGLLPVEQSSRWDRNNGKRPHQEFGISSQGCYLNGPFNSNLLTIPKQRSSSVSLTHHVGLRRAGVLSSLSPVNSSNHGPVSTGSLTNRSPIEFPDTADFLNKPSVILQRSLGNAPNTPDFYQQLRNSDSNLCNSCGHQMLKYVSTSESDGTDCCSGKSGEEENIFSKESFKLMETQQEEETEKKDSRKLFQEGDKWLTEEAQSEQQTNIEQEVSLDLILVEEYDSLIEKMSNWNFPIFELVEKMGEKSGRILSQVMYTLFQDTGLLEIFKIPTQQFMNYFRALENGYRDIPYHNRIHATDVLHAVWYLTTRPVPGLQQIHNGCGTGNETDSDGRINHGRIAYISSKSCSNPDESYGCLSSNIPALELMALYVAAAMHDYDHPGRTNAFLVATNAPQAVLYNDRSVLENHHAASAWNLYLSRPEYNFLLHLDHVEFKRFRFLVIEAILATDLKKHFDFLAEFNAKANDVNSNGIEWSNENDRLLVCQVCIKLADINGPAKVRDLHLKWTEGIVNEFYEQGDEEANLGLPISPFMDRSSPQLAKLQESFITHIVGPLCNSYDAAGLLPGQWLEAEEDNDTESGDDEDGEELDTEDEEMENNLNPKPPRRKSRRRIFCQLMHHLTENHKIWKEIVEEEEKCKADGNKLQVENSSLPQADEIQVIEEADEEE

[14] = biological target: Dual 3',5'-cyclic-AMP and -GMP phosphodiesterase 11A (Homo sapiens, UniProt Q9HCR9); assay: Inhibition of PDE11
[15] = biological target: High affinity cGMP-specific 3',5'-cyclic phosphodiesterase 9A (Homo sapiens, UniProt O76083); assay: Inhibition of PDE9
[16] = biological target: 3',5'-cyclic-AMP phosphodiesterase 4A (Homo sapiens, UniProt P27815); assay: Inhibition of PDE4A
[17] = Half life in rat at 2 mg/kg, po and 2 mg/kg, iv; assay type: ADME, organism-based; conditions: in vivo
[18] = biological target: 3',5'-cyclic-AMP phosphodiesterase 4B (Homo sapiens, UniProt Q07343); assay: Inhibition of PDE4B
Sequence of 3',5'-cyclic-AMP phosphodiesterase 4B (Q07343 whole entry): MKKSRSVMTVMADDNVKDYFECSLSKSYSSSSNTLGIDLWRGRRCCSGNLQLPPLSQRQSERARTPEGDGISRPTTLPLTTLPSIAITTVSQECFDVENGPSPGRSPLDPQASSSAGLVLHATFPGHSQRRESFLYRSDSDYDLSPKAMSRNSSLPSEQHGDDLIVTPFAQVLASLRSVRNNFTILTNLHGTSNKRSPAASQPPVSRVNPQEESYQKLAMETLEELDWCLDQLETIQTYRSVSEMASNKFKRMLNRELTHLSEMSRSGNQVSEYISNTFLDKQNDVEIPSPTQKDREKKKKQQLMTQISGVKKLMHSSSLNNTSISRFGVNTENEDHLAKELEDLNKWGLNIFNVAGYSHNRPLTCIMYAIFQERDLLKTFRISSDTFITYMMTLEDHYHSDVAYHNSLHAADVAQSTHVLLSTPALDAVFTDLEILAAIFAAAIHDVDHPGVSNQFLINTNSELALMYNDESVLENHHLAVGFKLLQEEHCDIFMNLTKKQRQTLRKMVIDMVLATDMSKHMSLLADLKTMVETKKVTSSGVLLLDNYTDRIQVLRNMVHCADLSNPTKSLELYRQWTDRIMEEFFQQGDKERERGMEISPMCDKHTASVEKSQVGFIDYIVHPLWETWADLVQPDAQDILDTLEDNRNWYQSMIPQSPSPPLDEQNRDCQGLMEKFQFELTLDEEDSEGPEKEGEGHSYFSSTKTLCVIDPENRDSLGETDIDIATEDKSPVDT

[19] = Clearance in dog at 2 mg/kg, po and 2 mg/kg, iv; assay type: ADME, organism-based, Canis lupus familiaris; conditions: in vivo
[20] = biological target: Dual specificity calcium/calmodulin-dependent 3',5'-cyclic nucleotide phosphodiesterase 1A (Homo sapiens, UniProt P54750); assay: Inhibition of PDE1A
Sequence of Dual specificity calcium/calmodulin-dependent 3',5'-cyclic nucleotide phosphodiesterase 1A (P54750 whole entry): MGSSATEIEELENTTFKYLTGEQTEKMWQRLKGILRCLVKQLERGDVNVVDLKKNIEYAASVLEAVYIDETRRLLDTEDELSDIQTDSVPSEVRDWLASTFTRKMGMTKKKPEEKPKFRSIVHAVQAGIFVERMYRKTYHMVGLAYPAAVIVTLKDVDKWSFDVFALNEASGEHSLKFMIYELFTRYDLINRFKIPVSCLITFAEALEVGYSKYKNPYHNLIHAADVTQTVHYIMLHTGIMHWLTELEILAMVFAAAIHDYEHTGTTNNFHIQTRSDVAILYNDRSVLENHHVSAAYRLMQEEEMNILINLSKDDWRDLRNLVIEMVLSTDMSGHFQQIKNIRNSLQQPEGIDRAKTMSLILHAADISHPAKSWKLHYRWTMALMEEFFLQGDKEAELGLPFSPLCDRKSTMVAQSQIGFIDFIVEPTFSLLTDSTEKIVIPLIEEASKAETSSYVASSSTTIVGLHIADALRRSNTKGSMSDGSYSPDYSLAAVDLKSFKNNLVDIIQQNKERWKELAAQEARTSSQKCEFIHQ

[21] = biological target: Dual specificity calcium/calmodulin-dependent 3',5'-cyclic nucleotide phosphodiesterase 1C (Homo sapiens, UniProt Q14123); assay: Inhibition of PDE1C
[22] = Volume of distribution in rat at 2 mg/kg, iv and 2 mg/kg, po; assay type: ADME, organism-based; conditions: in vivo
Rattus norvegicus [23] = organism: Rattus norvegicus; assay: Unbound clearance in rat; assay type: ADME, organism-based; conditions: in vivo
[24] = Oral bioavailability in dog at 2 mg/kg; assay type: ADME, organism-based, Canis lupus familiaris; conditions: in vivo
[25] = Half life in dog at 2 mg/kg, po and 2 mg/kg, iv; assay type: ADME, organism-based, Canis lupus familiaris; conditions: in vivo
[26] = biological target: cGMP-dependent 3',5'-cyclic phosphodiesterase (Homo sapiens, UniProt O00408); assay: Inhibition of PDE2
[27] = biological target: Rod cGMP-specific 3',5'-cyclic phosphodiesterase subunit alpha (Homo sapiens, UniProt P16499); assay: Inhibition of PDE6
[28] = Volume of distribution in dog at 2 mg/kg, iv and 2 mg/kg, po; assay type: ADME, organism-based, Canis lupus familiaris; conditions: in vivo
[29] = biological target: Dual specificity calcium/calmodulin-dependent 3',5'-cyclic nucleotide phosphodiesterase 1B (Homo sapiens, UniProt Q01064); assay: Inhibition of PDE1B
[30] = biological target: 3',5'-cyclic-AMP phosphodiesterase 4C (Homo sapiens, UniProt Q08493); assay: Inhibition of PDE4C
[31] = Clearance in rat; assay type: ADME, organism-based; conditions: in vivo
[32] = Half life in rat; assay type: ADME, organism-based; conditions: in vivo

Structure (SMILES)	Activity (Rattus norvegicus [1])	IC50 [3] [nM]	IC50 [5] [nM]	IC50 [7] [nM]	IC50 [8] [nM]	IC50 [12] [nM]	IC50 [13] [nM]	IC50 [14] [nM]	IC50 [15] [nM]	IC50 [16] [nM]	IC50 [18]	IC50 [20] [nM]	IC50 [21] [nM]	IC50 [26] [nM]	IC50 [27] [nM]	IC50 [29] [nM]	IC50 [30] [nM]	also measured
CCCOCCn1c(=O)c(N[C@H]2CC[C@H](O)CC2)nc2cnc(-c3ccc(OC)nc3)cc21	Active	> 2000	> 2000	> 2000	> 2000	> 2000	> 2000	64.1	> 2000	> 2000	> 2000 nM and 290 nM	> 2000	> 2000	> 2000	9.8	> 2000	> 2000	clearance [2]: 5.5 mL/min/kg; Papp A→B [4]: 34 ×10⁻⁶ cm/s; bioavailability [6]: 50%; Vdu (Rattus norvegicus [9]): 100 L/kg; IC50 [10]: 1210 nM; IC50 [11]: 0.05 nM; half-life [17]: 246 min; clearance [19]: 3.5 mL/min/kg; Vd [22]: 1.4 L/kg; CL free (Rattus norvegicus [23]): 400 mL/min/kg; bioavailability [24]: 75%; half-life [25]: 1060 min; Vd [28]: 3.7 L/kg
CCCOCCn1c(=O)c(NCCN2CCOCC2)nc2cnc(-c3ccc(OC)nc3)cc21	Active	> 2000	> 2000	> 2000	> 2000	> 2000	> 2000	346	> 2000	> 2000	> 2000 nM	> 2000	> 2000	> 2000	11.3	> 2000	> 2000	clearance [31]: 33 mL/min/kg; half-life [32]: 48 min
